Source: ChEMBL document CHEMBL5303573, “Mapping human microbiome drug metabolism by gut bacteria and their genes” (Nature, 2019)

Settings: bacteroides stercoris, 12 h, 2 µM
Description: The drug is tested on Bacteroides stercoris strain: ATCC43183 for biotransformation. The drug concentrations were measured before and after a 12-h incubation by liquid-chromatography-coupled mass spectrometry (LC–MS)

Structure (SMILES)	Bacterial Biotransformation
O=C1[C@H](CC[C@H](O)c2ccc(F)cc2)[C@@H](c2ccc(O)cc2)N1c1ccc(F)cc1 [EZETIMIBE]	Compound NOT metabolized

Assay: The drug is tested on Alistipes indistinctus strain: DSM22520 for biotransformation. The drug concentrations were measured before and after a 12-h incubation by liquid-chromatography-coupled mass spectrometry (LC–MS)
Settings: 2 µM

Structure (SMILES)	Bacterial Biotransformation
O=C1[C@H](CC[C@H](O)c2ccc(F)cc2)[C@@H](c2ccc(O)cc2)N1c1ccc(F)cc1 [EZETIMIBE]	Compound NOT metabolized

Settings: enterocloster bolteae, 12 h, 2 µM
Description: The drug is tested on Clostridium bolteae strain: ATCCBAA-613 for biotransformation. The drug concentrations were measured before and after a 12-h incubation by liquid-chromatography-coupled mass spectrometry (LC–MS)

Structure (SMILES)	Bacterial Biotransformation
O=C1[C@H](CC[C@H](O)c2ccc(F)cc2)[C@@H](c2ccc(O)cc2)N1c1ccc(F)cc1 [EZETIMIBE]	Compound NOT metabolized

Assay: The drug is tested on Bacteroides fragilis strain: HMW610 for biotransformation. The drug concentrations were measured before and after a 12-h incubation by liquid-chromatography-coupled mass spectrometry (LC–MS)
Settings: 2 µM

Structure (SMILES)	Bacterial Biotransformation
O=C1[C@H](CC[C@H](O)c2ccc(F)cc2)[C@@H](c2ccc(O)cc2)N1c1ccc(F)cc1 [EZETIMIBE]	Compound NOT metabolized

Assay: The drug is tested on Bacteroides fragilis strain: ATCC43859 for biotransformation. The drug concentrations were measured before and after a 12-h incubation by liquid-chromatography-coupled mass spectrometry (LC–MS)
Settings: 2 µM

Structure (SMILES)	Bacterial Biotransformation
O=C1[C@H](CC[C@H](O)c2ccc(F)cc2)[C@@H](c2ccc(O)cc2)N1c1ccc(F)cc1 [EZETIMIBE]	Compound NOT metabolized

Assay: The drug is tested on Subdoligranulum variabile strain: DSM15176 for biotransformation. The drug concentrations were measured before and after a 12-h incubation by liquid-chromatography-coupled mass spectrometry (LC–MS)
Settings: 2 µM

Structure (SMILES)	Bacterial Biotransformation
O=C1[C@H](CC[C@H](O)c2ccc(F)cc2)[C@@H](c2ccc(O)cc2)N1c1ccc(F)cc1 [EZETIMIBE]	Compound NOT metabolized

Assay: The drug is tested on Dorea formicigenerans strain: ATCC27755 for biotransformation. The drug concentrations were measured before and after a 12-h incubation by liquid-chromatography-coupled mass spectrometry (LC–MS)
Settings: 2 µM

Structure (SMILES)	Bacterial Biotransformation
O=C1[C@H](CC[C@H](O)c2ccc(F)cc2)[C@@H](c2ccc(O)cc2)N1c1ccc(F)cc1 [EZETIMIBE]	Compound NOT metabolized

Assay: The drug is tested on Bacteroides coprophilus strain: DSM18228 for biotransformation. The drug concentrations were measured before and after a 12-h incubation by liquid-chromatography-coupled mass spectrometry (LC–MS)
Settings: 2 µM

Structure (SMILES)	Bacterial Biotransformation
O=C1[C@H](CC[C@H](O)c2ccc(F)cc2)[C@@H](c2ccc(O)cc2)N1c1ccc(F)cc1 [EZETIMIBE]	Compound NOT metabolized

Assay: The drug is tested on Collinsella intestinalis strain: DSM13280 for biotransformation. The drug concentrations were measured before and after a 12-h incubation by liquid-chromatography-coupled mass spectrometry (LC–MS)
Settings: 2 µM

Structure (SMILES)	Bacterial Biotransformation
O=C1[C@H](CC[C@H](O)c2ccc(F)cc2)[C@@H](c2ccc(O)cc2)N1c1ccc(F)cc1 [EZETIMIBE]	Compound NOT metabolized

Assay: The drug is tested on Ruminococcus torques strain: ATCC27756 for biotransformation. The drug concentrations were measured before and after a 12-h incubation by liquid-chromatography-coupled mass spectrometry (LC–MS)
Format: ADME
Parameters: dose 2 uM, timepoint 0 vs 12 hours
Settings: 2 µM

Structure (SMILES)	Bacterial Biotransformation
O=C1[C@H](CC[C@H](O)c2ccc(F)cc2)[C@@H](c2ccc(O)cc2)N1c1ccc(F)cc1 [EZETIMIBE]	Compound NOT metabolized

Assay: The drug is tested on Eubacterium rectale strain: ATCC33656 for biotransformation. The drug concentrations were measured before and after a 12-h incubation by liquid-chromatography-coupled mass spectrometry (LC–MS)
Settings: agathobacter rectalis, 2 µM

Structure (SMILES)	Bacterial Biotransformation
O=C1[C@H](CC[C@H](O)c2ccc(F)cc2)[C@@H](c2ccc(O)cc2)N1c1ccc(F)cc1 [EZETIMIBE]	Compound NOT metabolized

Assay: The drug is tested on Parabacteroides merdae strain: ATCC43184 for biotransformation. The drug concentrations were measured before and after a 12-h incubation by liquid-chromatography-coupled mass spectrometry (LC–MS)
Settings: 2 µM

Structure (SMILES)	Bacterial Biotransformation
O=C1[C@H](CC[C@H](O)c2ccc(F)cc2)[C@@H](c2ccc(O)cc2)N1c1ccc(F)cc1 [EZETIMIBE]	Compound NOT metabolized

Assay: The drug is tested on Clostridium symbiosum strain: ATCC14940 for biotransformation. The drug concentrations were measured before and after a 12-h incubation by liquid-chromatography-coupled mass spectrometry (LC–MS)
Settings: 2 µM

Structure (SMILES)	Bacterial Biotransformation
O=C1[C@H](CC[C@H](O)c2ccc(F)cc2)[C@@H](c2ccc(O)cc2)N1c1ccc(F)cc1 [EZETIMIBE]	Compound NOT metabolized

Assay: The drug is tested on Coprococcus comes strain: ATCC27758 for biotransformation. The drug concentrations were measured before and after a 12-h incubation by liquid-chromatography-coupled mass spectrometry (LC–MS)
Format: ADME
Parameters: dose 2 uM, timepoint 0 vs 12 hours
Settings: 2 µM

Structure (SMILES)	Bacterial Biotransformation
O=C1[C@H](CC[C@H](O)c2ccc(F)cc2)[C@@H](c2ccc(O)cc2)N1c1ccc(F)cc1 [EZETIMIBE]	Compound NOT metabolized

Assay: The drug is tested on Edwardsiella tarda strain: ATCC23685 for biotransformation. The drug concentrations were measured before and after a 12-h incubation by liquid-chromatography-coupled mass spectrometry (LC–MS)
Settings: 2 µM

Structure (SMILES)	Bacterial Biotransformation
O=C1[C@H](CC[C@H](O)c2ccc(F)cc2)[C@@H](c2ccc(O)cc2)N1c1ccc(F)cc1 [EZETIMIBE]	Compound NOT metabolized

Assay: The drug is tested on Blautia luti strain: DSM14534 for biotransformation. The drug concentrations were measured before and after a 12-h incubation by liquid-chromatography-coupled mass spectrometry (LC–MS)
Format: ADME
Parameters: dose 2 uM, timepoint 0 vs 12 hours
Settings: 2 µM

Structure (SMILES)	Bacterial Biotransformation
O=C1[C@H](CC[C@H](O)c2ccc(F)cc2)[C@@H](c2ccc(O)cc2)N1c1ccc(F)cc1 [EZETIMIBE]	Compound NOT metabolized

Assay: The drug is tested on Enterobacter cancerogenus strain: ATCC35316 for biotransformation. The drug concentrations were measured before and after a 12-h incubation by liquid-chromatography-coupled mass spectrometry (LC–MS)
Settings: 2 µM

Structure (SMILES)	Bacterial Biotransformation
O=C1[C@H](CC[C@H](O)c2ccc(F)cc2)[C@@H](c2ccc(O)cc2)N1c1ccc(F)cc1 [EZETIMIBE]	Compound NOT metabolized

Assay: The drug is tested on Clostridium asparagiforme strain: DSM15981 for biotransformation. The drug concentrations were measured before and after a 12-h incubation by liquid-chromatography-coupled mass spectrometry (LC–MS)
Format: ADME
Parameters: dose 2 uM, timepoint 0 vs 12 hours
Settings: enterocloster asparagiformis, 2 µM

Structure (SMILES)	Bacterial Biotransformation
O=C1[C@H](CC[C@H](O)c2ccc(F)cc2)[C@@H](c2ccc(O)cc2)N1c1ccc(F)cc1 [EZETIMIBE]	Compound NOT metabolized

Assay: The drug is tested on Bacteroides pectinophilus strain: ATCC43243 for biotransformation. The drug concentrations were measured before and after a 12-h incubation by liquid-chromatography-coupled mass spectrometry (LC–MS)
Settings: 2 µM

Structure (SMILES)	Bacterial Biotransformation
O=C1[C@H](CC[C@H](O)c2ccc(F)cc2)[C@@H](c2ccc(O)cc2)N1c1ccc(F)cc1 [EZETIMIBE]	Compound NOT metabolized
